Inconclusive results and toxic doses are left out. How the source made its calls: active means survival T/C of 150% or more; inactive means T/C below 125% in these data. Positions of bridges follow the written chain, without caps; N, C: chain ends. Non-standard residues stand in square brackets, D forms with d. Residues, ends and D or L forms follow the SMILES beside them. Chains are numbered I, II in the order given. *: point of attachment. Quinoxaline2carbonyl = O=C(c1cnc2ccccc2n1)*; NMeV = CN[CH](C(=O)O)C(C)C; NMeC = CN[CH](CS)C(=O)O
System: CD2F1 mice, L1210 leukemia ip, survival T/C
Test: NCI In Vivo Anticancer Drug Screen. Data for tumor model L1210 Leukemia (intraperitoneal) in CD2F1 (CDF1) mice
Details: higher = longer survival
Procedure, shortened: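 Ratio T/C, where T is the treated-group value and C the vehicle-dosed control value, from mice implanted with a transplantable tumor.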

[1] = endpoint: mean survival time, dose: 100.0 mg/kg/injection, schedule: Q04DX002 (ip), vehicle: saline with Tween-80
[2] = endpoint: mean survival time, dose: 100.0 mg/kg/injection, schedule: Q01DX001 (ip), vehicle: saline
[3] = endpoint: mean survival time, dose: 200.0 mg/kg/injection, schedule: Q01DX001 (ip), vehicle: saline
[4] = endpoint: mean survival time, dose: 100.0 mg/kg/injection, schedule: Q04DX003 (ip), vehicle: saline with Tween-80
[5] = endpoint: mean survival time, dose: 200.0 mg/kg/injection, schedule: Q04DX003 (ip), vehicle: saline with Tween-80
[6] = endpoint: mean survival time, dose: 400.0 mg/kg/injection, schedule: Q01DX001 (ip), vehicle: saline
[7] = endpoint: mean survival time, dose: 100.0 mg/kg/injection, schedule: Q01DX009 (ip), vehicle: saline with Tween-80
[8] = endpoint: mean survival time, dose: 200.0 mg/kg/injection, schedule: Q01DX009 (ip), vehicle: saline with Tween-80
[9] = endpoint: mean survival time, dose: 400.0 mg/kg/injection, schedule: Q01DX009 (ip), vehicle: saline with Tween-80
[10] = endpoint: mean survival time, dose: 400.0 mg/kg/injection, schedule: Q04DX003 (ip), vehicle: saline with Tween-80

Measured: T/C

c1ccc(C(c2ccccc2)C(c2ccccc2)c2ccccc2)cc1
inactive: endpoint: mean survival time, dose: 18.7 mg/kg/injection, schedule: Q01DX009 (ip), vehicle: saline with Tween-80 89 % of control | endpoint: mean survival time, dose: 37.5 mg/kg/injection, schedule: Q01DX009 (ip), vehicle: saline with Tween-80 89 % of control

CN(C)C(=S)Oc1ccc(S(=O)(=O)F)c(Cl)c1Cl
inactive: [1] 87 % of control | endpoint: mean survival time, dose: 400.0 mg/kg/injection, schedule: Q04DX002 (ip), vehicle: saline with Tween-80 87 % of control

NC1(C(=O)O)CCCC1.[Pd]
inactive: [2] 100 % of control | [3] 96 % of control

COC(=O)Nc1ccc(NC(=O)c2cscn2)c(NC(=O)OC)n1
inactive: [4] 98 % of control | [5] 91 % of control

O=C1C(c2ccccc2)CN1C1CCCCC1 (configuration not stated)
inactive: [2] 104 % of control | [3] 101 % of control | [6] 87 % of control

NC(=O)C(=O)N/N=C/c1ccc2c(c1)CCC2
inactive: endpoint: mean survival time, dose: 12.5 mg/kg/injection, schedule: Q04DX003 (ip), vehicle: saline with Tween-80 97 % of control | endpoint: mean survival time, dose: 25.0 mg/kg/injection, schedule: Q04DX003 (ip), vehicle: saline with Tween-80 94 % of control | endpoint: mean survival time, dose: 50.0 mg/kg/injection, schedule: Q04DX003 (ip), vehicle: saline with Tween-80 92 % of control

[N-]=[N+]=NC1CC(n2ccc(N)nc2=O)OC1CO (configuration not stated)
inactive: endpoint: median survival time, dose: 12.5 mg/kg/injection, schedule: Q01DX005 (ip), vehicle: saline 113 % of control | endpoint: median survival time, dose: 25.0 mg/kg/injection, schedule: Q01DX005 (ip), vehicle: saline 109 % of control | endpoint: median survival time, dose: 50.0 mg/kg/injection, schedule: Q01DX005 (ip), vehicle: saline 98 % of control | endpoint: median survival time, dose: 100.0 mg/kg/injection, schedule: Q01DX005 (ip), vehicle: saline 107 % of control | endpoint: median survival time, dose: 200.0 mg/kg/injection, schedule: Q01DX005 (ip), vehicle: saline 103 % of control

COc1cc2c(cc1OC)C(N)CCC2 (configuration not stated)
inactive: endpoint: mean survival time, dose: 12.5 mg/kg/injection, schedule: Q01DX009 (ip), vehicle: water 97 % of control | endpoint: mean survival time, dose: 25.0 mg/kg/injection, schedule: Q01DX009 (ip), vehicle: water 103 % of control | endpoint: mean survival time, dose: 50.0 mg/kg/injection, schedule: Q01DX009 (ip), vehicle: water 98 % of control | endpoint: mean survival time, dose: 100.0 mg/kg/injection, schedule: Q01DX009 (ip), vehicle: water 105 % of control

N#CO
inactive: endpoint: mean survival time, dose: 50.0 mg/kg/injection, schedule: Q01DX009 (ip), vehicle: saline sonified 100 % of control | endpoint: mean survival time, dose: 100.0 mg/kg/injection, schedule: Q01DX009 (ip), vehicle: saline sonified 118 % of control | endpoint: mean survival time, dose: 100.0 mg/kg/injection, schedule: Q04DX003 (ip), vehicle: saline 98 % of control | endpoint: mean survival time, dose: 200.0 mg/kg/injection, schedule: Q04DX003 (ip), vehicle: saline 112 % of control

CCOC(=O)C1(Cc2ccccc2)SCCCS1
inactive: endpoint: mean survival time, dose: 50.0 mg/kg/injection, schedule: Q04DX002 (ip), vehicle: saline with Tween-80 105 % of control | [1] 105 % of control | endpoint: mean survival time, dose: 200.0 mg/kg/injection, schedule: Q04DX002 (ip), vehicle: saline with Tween-80 105 % of control

CC(C)C(=O)OCCOc1ccccc1
inactive: [7] 100 % of control | [8] 100 % of control | [9] 98 % of control

NC(=S)N/N=C/c1cc(=O)c2cc(Cl)ccc2o1
inactive: endpoint: median survival time, dose: 75.0 mg/kg/injection, schedule: Q01DX005 (ip), vehicle: DMSO 95 % of control | endpoint: median survival time, dose: 150.0 mg/kg/injection, schedule: Q01DX005 (ip), vehicle: DMSO 98 % of control | endpoint: median survival time, dose: 300.0 mg/kg/injection, schedule: Q01DX005 (ip), vehicle: DMSO 97 % of control | endpoint: median survival time, dose: 600.0 mg/kg/injection, schedule: Q01DX005 (ip), vehicle: DMSO 96 % of control | endpoint: median survival time, dose: 1200.0 mg/kg/injection, schedule: Q01DX005 (ip), vehicle: DMSO 104 % of control

N#CC1(C#N)OC(C#N)(C#N)c2ccccc21
inactive: endpoint: mean survival time, dose: 6.25 mg/kg/injection, schedule: Q01DX001 (ip), vehicle: saline with Tween-80 102 % of control | endpoint: mean survival time, dose: 12.5 mg/kg/injection, schedule: Q01DX001 (ip), vehicle: saline with Tween-80 98 % of control | endpoint: mean survival time, dose: 25.0 mg/kg/injection, schedule: Q01DX001 (ip), vehicle: saline with Tween-80 98 % of control

CC1NC(=O)C(NC(=O)c2cnc3ccccc3n2)COC(=O)C(C(C)C)N(C)C(=O)C2CSSCC(C(=O)N(C)C(C(C)C)C(=O)OCC(NC(=O)c3cnc4ccccc4n3)C(=O)NC(C)C(=O)N2C)N(C)C1=O (configuration not stated) (I: Quinoxaline2carbonyl-SA[NMeC][NMeV] / II: Quinoxaline2carbonyl-SA[NMeC][NMeV]; ester I:1-II:C, I:C-II:1; disulfide I:3-II:3; configuration not given here)
inactive: endpoint: mean survival time, dose: 11.2 micrograms/kg/injection, schedule: Q01DX009 (ip), vehicle: Klucel (hydroxypropylcellulose) (HPC) 101 % of control | endpoint: mean survival time, dose: 22.5 micrograms/kg/injection, schedule: Q01DX009 (ip), vehicle: Klucel (hydroxypropylcellulose) (HPC) 103 % of control | endpoint: mean survival time, dose: 45.0 micrograms/kg/injection, schedule: Q01DX009 (ip), vehicle: Klucel (hydroxypropylcellulose) (HPC) 105 % of control | endpoint: mean survival time, dose: 50.0 micrograms/kg/injection, schedule: Q01DX009 (ip), vehicle: other 114 % of control | endpoint: mean survival time, dose: 90.0 micrograms/kg/injection, schedule: Q01DX009 (ip), vehicle: Klucel (hydroxypropylcellulose) (HPC) 105 % of control | endpoint: mean survival time, dose: 180.0 micrograms/kg/injection, schedule: Q01DX009 (ip), vehicle: Klucel (hydroxypropylcellulose) (HPC) 100 % of control | endpoint: mean survival time, dose: 200.0 micrograms/kg/injection, schedule: Q01DX009 (ip), vehicle: other 115 % of control

CNC(=O)c1cccc2ccccc12
inactive: endpoint: mean survival time, dose: 50.0 mg/kg/injection, schedule: Q01DX001 (ip), vehicle: saline 103 % of control | [2] 100 % of control | [3] 97 % of control | [6] 95 % of control

CCOC(=O)NC(O)C(Cl)(Cl)Cl (configuration not stated)
inactive: [7] 97 % of control | [8] 106 % of control | [9] 112 % of control

COC1C2CCC1N(C)CC2 (configuration not stated)
inactive: endpoint: mean survival time, dose: 37.5 mg/kg/injection, schedule: Q04DX002 (ip), vehicle: saline with Tween-80 106 % of control | endpoint: mean survival time, dose: 75.0 mg/kg/injection, schedule: Q04DX002 (ip), vehicle: saline with Tween-80 98 % of control | endpoint: mean survival time, dose: 150.0 mg/kg/injection, schedule: Q04DX002 (ip), vehicle: saline with Tween-80 117 % of control | endpoint: mean survival time, dose: 300.0 mg/kg/injection, schedule: Q04DX002 (ip), vehicle: saline with Tween-80 95 % of control

O=C(COc1ccc(Cl)c(Cl)c1)NCCc1ccccn1
inactive: [7] 95 % of control | [8] 97 % of control | [9] 95 % of control

Cc1c2c(cc3c1[nH]c1ccccc13)C(c1ccc(Cl)cc1)=NCC2
inactive: [7] 101 % of control | [4] 101 % of control | [8] 98 % of control | [5] 89 % of control | [9] 106 % of control | [10] 88 % of control

CCOC(=O)CCN(CC)CC
inactive: endpoint: mean survival time, dose: 100.0 mg/kg/injection, schedule: Q01DX009 (ip), vehicle: saline 106 % of control | endpoint: mean survival time, dose: 200.0 mg/kg/injection, schedule: Q01DX009 (ip), vehicle: saline 97 % of control | endpoint: mean survival time, dose: 400.0 mg/kg/injection, schedule: Q01DX009 (ip), vehicle: saline 97 % of control

C(=Nc1ccccc1)c1ccc(C=Nc2ccccc2)cc1
inactive: [7] 106 % of control | endpoint: mean survival time, dose: 100.0 mg/kg/injection, schedule: Q04DX003 (ip), vehicle: saline sonified 97 % of control | [8] 94 % of control | endpoint: mean survival time, dose: 200.0 mg/kg/injection, schedule: Q04DX003 (ip), vehicle: saline sonified 102 % of control | endpoint: mean survival time, dose: 400.0 mg/kg/injection, schedule: Q04DX003 (ip), vehicle: saline sonified 97 % of control

CCCCCCCCCCCCCCCCSc1cccc(C)c1
inactive: endpoint: mean survival time, dose: 100.0 mg/kg/injection, schedule: Q04DX003 (ip), vehicle: Klucel (hydroxypropylcellulose) (HPC) 95 % of control | endpoint: mean survival time, dose: 200.0 mg/kg/injection, schedule: Q04DX003 (ip), vehicle: Klucel (hydroxypropylcellulose) (HPC) 92 % of control | endpoint: mean survival time, dose: 400.0 mg/kg/injection, schedule: Q04DX003 (ip), vehicle: Klucel (hydroxypropylcellulose) (HPC) 98 % of control

O=[N+]([O-])c1cc(I)c(I)c(I)c1
inactive: [4] 98 % of control | [5] 104 % of control | [10] 98 % of control
